# Test results reported in ChEMBL document CHEMBL5236635, “Structure-Based Drug Design and Synthesis of Novel N-Aryl-2,4-bithiazole-2-amine CYP1B1-Selective Inhibitors in Overcoming Taxol Resistance in A549 Cells” (J Med Chem, 2022).
# Calls of active or inactive are those of the source. The rule behind the calls is not given here.
# Columns and labels:
# CYP1A1 versus CYP1B1 = assay: Selectivity index, ratio of IC50 for inhibition of recombinant human CYP1A1 to IC50 for inhibition of recombinant human CYP1B1; conditions: recombinant human CYP1A1 and recombinant human CYP1B1
# Cytochrome P450 1A1 [1] = biological target: T1, Cytochrome P450 1A1 (Homo sapiens, UniProt P04798); assay: Inhibition of recombinant human CYP1A1 using 7-ethyl-0-resorufin as substrate incubated for 30 mins in presence of NADPH by EROD assay
# T1 sequence (P04798 whole entry): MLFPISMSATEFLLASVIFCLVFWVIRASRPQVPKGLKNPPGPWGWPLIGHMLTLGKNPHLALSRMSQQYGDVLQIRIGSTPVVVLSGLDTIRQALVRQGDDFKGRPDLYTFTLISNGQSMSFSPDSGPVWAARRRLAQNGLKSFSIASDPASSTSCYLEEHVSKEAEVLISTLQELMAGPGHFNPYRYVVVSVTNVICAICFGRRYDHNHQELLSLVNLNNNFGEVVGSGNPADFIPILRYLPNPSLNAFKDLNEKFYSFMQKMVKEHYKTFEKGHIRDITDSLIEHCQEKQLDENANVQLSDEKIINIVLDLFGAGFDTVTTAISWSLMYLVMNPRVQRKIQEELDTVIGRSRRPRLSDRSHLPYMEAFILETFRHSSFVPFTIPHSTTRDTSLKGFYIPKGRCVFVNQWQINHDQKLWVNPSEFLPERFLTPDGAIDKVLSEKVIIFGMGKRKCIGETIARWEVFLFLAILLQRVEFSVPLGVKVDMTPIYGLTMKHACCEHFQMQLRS
# CYP1A2 versus CYP1B1 = assay: Selectivity index, ratio of IC50 for inhibition of recombinant human CYP1A2 to IC50 for inhibition of recombinant human CYP1B1; conditions: recombinant human CYP1A2 and recombinant human CYP1B1
# Cytochrome P450 1A2 [2] = biological target: T2, Cytochrome P450 1A2 (Homo sapiens, UniProt P05177); assay: Inhibition of recombinant human CYP1A2 using 7-ethyl-0-resorufin as substrate incubated for 30 mins in presence of NADPH by EROD assay
# T2 sequence (P05177 whole entry): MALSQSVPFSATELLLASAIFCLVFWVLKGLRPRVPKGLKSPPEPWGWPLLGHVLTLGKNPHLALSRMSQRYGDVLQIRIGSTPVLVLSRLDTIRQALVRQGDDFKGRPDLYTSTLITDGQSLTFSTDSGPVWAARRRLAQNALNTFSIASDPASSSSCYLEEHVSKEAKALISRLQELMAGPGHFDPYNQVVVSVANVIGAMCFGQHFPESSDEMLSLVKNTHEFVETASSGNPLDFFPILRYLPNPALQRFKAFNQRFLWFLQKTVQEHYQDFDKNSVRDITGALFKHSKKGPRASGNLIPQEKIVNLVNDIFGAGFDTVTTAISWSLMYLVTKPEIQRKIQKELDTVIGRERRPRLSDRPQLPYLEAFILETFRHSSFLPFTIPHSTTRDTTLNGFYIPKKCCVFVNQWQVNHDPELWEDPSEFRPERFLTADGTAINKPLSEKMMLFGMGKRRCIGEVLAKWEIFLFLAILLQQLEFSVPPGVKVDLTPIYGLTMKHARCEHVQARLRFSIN
# Cytochrome P450 1B1 [3] = biological target: T3, Cytochrome P450 1B1 (Homo sapiens, UniProt Q16678); assay: Inhibition of recombinant human CYP1B1 using 7-ethyl-0-resorufin as substrate incubated for 30 mins in presence of NADPH by EROD assay
# T3 sequence (Q16678 whole entry): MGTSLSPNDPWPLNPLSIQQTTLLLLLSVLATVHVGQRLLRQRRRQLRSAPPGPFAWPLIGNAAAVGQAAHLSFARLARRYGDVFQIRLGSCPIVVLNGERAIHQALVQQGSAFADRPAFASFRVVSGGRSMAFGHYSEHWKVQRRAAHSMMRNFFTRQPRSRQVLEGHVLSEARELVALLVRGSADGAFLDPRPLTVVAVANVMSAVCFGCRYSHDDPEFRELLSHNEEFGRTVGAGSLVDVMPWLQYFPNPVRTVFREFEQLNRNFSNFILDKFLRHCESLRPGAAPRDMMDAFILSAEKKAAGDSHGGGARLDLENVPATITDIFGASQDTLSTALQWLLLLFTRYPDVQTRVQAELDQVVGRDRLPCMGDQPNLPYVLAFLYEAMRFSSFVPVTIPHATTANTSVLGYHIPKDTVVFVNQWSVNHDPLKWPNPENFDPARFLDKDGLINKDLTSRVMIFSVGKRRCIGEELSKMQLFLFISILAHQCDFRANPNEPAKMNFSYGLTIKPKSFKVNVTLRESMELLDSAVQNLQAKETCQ
# CYP1B1 = biological target: T4, CYP1B1 (Homo sapiens, UniProt Q16678); assay: Inhibition of recombinant human CYP1B1 assessed as inhibition ratio at 100 nM using 7-ethyl-0-resorufin as substrate incubated for 30 mins in presence of NADPH by EROD assay relative to control; conditions: recombinant human CYP1B1, probe 7-ethyl-0-resorufin
# T4 sequence (Q16678 whole entry): T3 sequence (Q16678 whole entry)
# A549/TR = assay: Reversal of taxol resistance in human A549/Taxol cells assessed as increase in Rho123 accumulation at 5 uM incubated for 20 mins by multimode plate reader analysis; type: functional, cell-based
# Cytochrome P450 1B1 [4] = biological target: T3, Cytochrome P450 1B1; assay: Inhibition of human CYP1B1; type: ADME
# Cytochrome P450 1A1 [5] = biological target: T1, Cytochrome P450 1A1; assay: Inhibition of CYP1A1 (unknown origin) assessed as inhibition constant; type: ADME
# Cytochrome P450 1B1 [6] = biological target: T3, Cytochrome P450 1B1; assay: Inhibition of CYP1B1 (unknown origin); type: ADME
# Cytochrome P450 1A1 [7] = biological target: T1, Cytochrome P450 1A1; assay: Inhibition of CYP1A1 (unknown origin); type: ADME
# Cytochrome P450 1A2 [8] = biological target: T2, Cytochrome P450 1A2; assay: Inhibition of CYP1A2 (unknown origin); type: ADME
# A549 [9] = assay: Inhibition of DMBA induced taxol resistance in human A549 cells; type: functional, cell-based; conditions: dose 2.5-10 µM
# A549 [10] = assay: Antiproliferative activity against human A549 cells assessed as reduction in cell viability at 20 nM by MTT assay; type: functional, cell-based
# A549 [11] = assay: Antiproliferative activity against human A549 cells assessed as reduction in cell viability at 10 nM by MTT assay; type: functional, cell-based
# A549 [12] = assay: Antiproliferative activity against human A549 cells assessed as reduction in cell viability at 20 nM in presence of DMBA by MTT assay; type: functional, cell-based
Compound,IC50 (Cytochrome P450 1A1 [1]) [nM],IC50 (Cytochrome P450 1A2 [2]) [nM],IC50 (Cytochrome P450 1B1 [3]) [nM],"inhibition at 0.5 h, 0.1 µM (CYP1B1) [%]",selectivity ratio (CYP1A1 versus CYP1B1),selectivity ratio (CYP1A2 versus CYP1B1),further results
c1csc(-c2csc(Nc3ccc(Cn4cncn4)cc3)n2)n1,166,141,9.09,92,18.2,15.4,–
COc1ccc(CCN(C)CCCC(C#N)(c2ccc(OC)c(OC)c2)C(C)C)cc1OC (stereo not drawn),–,–,–,–,–,–,Activity (A549/TR): Active
c1cn(Cc2ccc(Nc3nc(-c4nccs4)cs3)cc2)cn1,70.4,48.5,4.96,99.7,14.1,9.7,–
Cc1cc(O)c2c(c1)C(=O)c1cc(O)cc(O)c1C2=O [EMODIN],–,–,–,–,–,–,IC50 (Cytochrome P450 1B1 [4]): 3730 nM
CCC/C(C=C(C)C)=C\COc1c2occc2c(C)c2ccc(=O)oc12,–,–,–,–,–,–,Ki (Cytochrome P450 1A1 [5]): 7170 nM
Clc1cc(Nc2nc(-c3nccs3)cs2)cc(Cl)c1Cl,482,483,7.45,100,64.7,64.8,–
Fc1ccccc1-c1csc(-c2csc(Nc3ccc(N4CCOCC4)cc3)n2)n1,110,5060,12.9,–,8.48,392,–
Nc1ccc2[nH]c3c(c2c1)CCn1c-3nc2ccccc2c1=O,–,–,–,–,–,–,IC50 (Cytochrome P450 1B1 [6]): 90 nM; IC50 (Cytochrome P450 1A1 [7]): 2580 nM; IC50 (Cytochrome P450 1A2 [8]): 2580 nM
Fc1ccccc1-c1csc(-c2csc(Nc3cc(Cl)cc(Cl)c3)n2)n1,–,–,–,–,–,–,inhibition (A549 [9]): Dose-Dependent Effect
COc1cc(Nc2nc(-c3nc(-c4ccccc4Cl)cs3)cs2)cc(OC)c1,323,1250,8.07,–,40,155,–
CC(=O)O[C@H]1C(=O)[C@@]2(C)[C@H]([C@H](OC(=O)c3ccccc3)[C@]3(O)C[C@H](OC(=O)[C@H](O)[C@@H](NC(=O)c4ccccc4)c4ccccc4)C(C)=C1C3(C)C)[C@]1(OC(C)=O)CO[C@@H]1C[C@@H]2O,–,–,–,–,–,–,Activity (A549 [10]): Active; Activity (A549 [11]): Active; Activity (A549 [12]): inactive
c1cncc(-c2csc(-c3csc(Nc4ccc(N5CCOCC5)cc4)n3)n2)c1,22.4,2550,15.9,–,1.4,160,–
CCc1sc(-c2csc(Nc3cc(OC)cc(OC)c3)n2)nc1-c1ccccc1,611,5250,10.8,–,56.3,484,–
Cc1sc(-c2csc(Nc3cccc(F)c3)n2)nc1-c1ccncc1,105,230,73.3,–,1.43,3.14,–

# Continued, in another order:
IC50 (Cytochrome P450 1A1 [1]) [nM],IC50 (Cytochrome P450 1A2 [2]) [nM],IC50 (Cytochrome P450 1B1 [3]) [nM],"inhibition at 0.5 h, 0.1 µM (CYP1B1) [%]",Compound,selectivity ratio (CYP1A1 versus CYP1B1),selectivity ratio (CYP1A2 versus CYP1B1),further results
93,78.5,9,97.6,c1csc(-c2csc(Nc3ccc4c(c3)OCO4)n2)n1,10.3,8.71,–
178,55.7,1.76,97.2,Clc1cc(Cl)cc(Nc2nc(-c3nccs3)cs2)c1,101,31.5,–
316,313,23.3,–,Cc1sc(-c2csc(Nc3cc(Cl)cc(Cl)c3)n2)nc1-c1ccccc1,13.5,13.4,–
271,916,77.6,–,C#CCOc1ccccc1-c1csc(-c2csc(Nc3cc(OC)cc(OC)c3)n2)n1,3.49,11.8,–
334,2860,11.6,–,c1ccc(-c2csc(-c3csc(Nc4ccc(N5CCOCC5)cc4)n3)n2)cc1,28.9,247,–
4460,312,153,–,c1cc(-c2csc(-c3csc(Nc4ccc(N5CCOCC5)cc4)n3)n2)ccn1,29.2,2.04,–
46.6,> 10000,8.67,–,Clc1ccccc1-c1csc(-c2csc(Nc3ccc(N4CCOCC4)cc3)n2)n1,5.37,–,inhibition (A549 [9]): Dose-Dependent Effect
994,1860,7.88,87.7,c1csc(-c2csc(Nc3ccc(N4CCOCC4)cc3)n2)n1,126,236,–
43.9,89,0.121,90.7,COc1cc(Nc2nc(-c3nccs3)cs2)cc(OC)c1,363,733,–
276,1260,203,–,Cc1sc(-c2csc(Nc3ccc(N4CCOCC4)cc3)n2)nc1-c1ccncc1,1.36,6.2,–
586,119,6.31,90,Clc1ccc(Nc2nc(-c3nccs3)cs2)cc1,92.9,18.8,–
